Measured values reported in patent publication US8394792B2, “Heterocyclic derivatives” (C&C Research Laboratories, priority 2008, dated 2013).
Read-outs that look alike come from different tables or passages of the source.

Assays:
[1] = cited from earlier work; for excretion rate in urine: until 72 hours after administration of benzbromarone
Cebus monkey = assay: Test for uricosuric effect in Cebus monkey; format: in vivo; details: for Plasma uric acid level: 4 hours after administration
CYP2C9 [2] = target: T1, CYP2C9 (Homo sapiens, UniProt P11712)
CYP2C9 [3] = target: T1, CYP2C9; assay: biochemical
hURAT1 = target: T2, hURAT1 (Homo sapiens, UniProt Q96S37); assay: Test for inhibiting urate reuptake activity via hURAT1 (uric acid transport assay in hURAT1-overexpressed HEK293 cell line); format: cell-based; details: hURAT1-overexpressed HEK293 cells, [14C]-uric acid uptake, 100 μM uric acid
T2 construct: expressed in transfected cells; host or cells: HEK293 (human kidney cell line), transient transfection with Fugene6
T2 sequence (Q96S37 1-553): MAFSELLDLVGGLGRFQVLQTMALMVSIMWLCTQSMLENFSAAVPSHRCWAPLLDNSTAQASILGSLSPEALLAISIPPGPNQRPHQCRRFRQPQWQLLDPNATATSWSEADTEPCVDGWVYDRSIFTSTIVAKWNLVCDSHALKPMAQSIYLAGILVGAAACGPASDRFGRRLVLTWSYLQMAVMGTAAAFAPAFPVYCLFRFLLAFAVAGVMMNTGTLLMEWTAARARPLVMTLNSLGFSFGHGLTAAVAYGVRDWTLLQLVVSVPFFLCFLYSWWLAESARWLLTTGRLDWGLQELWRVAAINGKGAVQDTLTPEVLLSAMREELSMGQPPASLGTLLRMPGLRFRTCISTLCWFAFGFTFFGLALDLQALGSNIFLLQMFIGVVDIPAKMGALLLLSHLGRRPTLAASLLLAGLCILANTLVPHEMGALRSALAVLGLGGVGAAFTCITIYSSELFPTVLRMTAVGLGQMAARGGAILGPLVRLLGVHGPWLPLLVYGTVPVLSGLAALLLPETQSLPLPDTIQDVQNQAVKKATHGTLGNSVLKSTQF

[4] = Test for solubility according to pH; format: physicochemical; details: 37° C. 2 hours; for solubility at 2 h: thermodynamic from solid
Method: 2.0 g of sodium chloride was dissolved in 7.0 mL of hydrochloric acid and water to make the total volume of 1000 mL. This solution was colorless and clear. Its pH was about 1.2.
To 250 mL of 0.2 mol/L potassium dihydrogen phosphate solution, 118 mL of 0.2 mol/L sodium hydroxide solution and water were added to make the total volume of 1000 mL. This solution was colorless and clear. Its pH was about 6.8.
For the compounds of present invention prepared in the examples, the test samples were prepared in each of the first and second solutions with 2 mg/mL concentration. This test sample solution was agitated for 10 seconds, sonicated for 1 minute and heated at 37° C. for 2 hours. The heated test sample solution was filtered to remove undissolved compounds therein. From filtered solution, 100 μl of the completely dissolved solution was sampled and 100 μl of acetonitrile was added thereto to make test sample solution. For each analysis of test sample solution, the solubility was measured by using liquid chromatography.

[5] = 2 tablets (50 mg/tablet) benzbromarone one time, healthy fasting adult
[6] = oral 15 mg/kg, during 0~8 hours

T1 sequence (P11712 whole entry): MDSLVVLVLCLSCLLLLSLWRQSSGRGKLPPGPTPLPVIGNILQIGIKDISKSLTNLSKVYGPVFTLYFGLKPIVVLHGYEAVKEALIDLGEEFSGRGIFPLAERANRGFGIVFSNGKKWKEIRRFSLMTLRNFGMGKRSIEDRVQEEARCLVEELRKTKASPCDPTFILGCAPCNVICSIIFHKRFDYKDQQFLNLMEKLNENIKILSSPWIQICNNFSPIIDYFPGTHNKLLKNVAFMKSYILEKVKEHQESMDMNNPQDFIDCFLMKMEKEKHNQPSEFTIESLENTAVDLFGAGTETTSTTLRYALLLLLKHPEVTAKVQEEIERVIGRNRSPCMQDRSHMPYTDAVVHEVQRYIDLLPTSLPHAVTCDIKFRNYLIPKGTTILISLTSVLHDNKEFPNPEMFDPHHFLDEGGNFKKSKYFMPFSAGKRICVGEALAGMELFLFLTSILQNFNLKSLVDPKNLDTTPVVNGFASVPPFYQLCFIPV

CCc1oc2cc(O)ccc2c1C(=O)c1cc(Br)c(O)c(Br)c1 [6-hydroxy benzbromarone]
half-life of drug [1, 5]: 18.0 ± 2.9 h | maximum concentration of drug (Cmax) [1, 5]: 1700 ± 400 ng/mL | time of maximum drug concentration in blood (Tmax) [1, 5]: 4.8 ± 1.3 h | excretion rate in urine [1]: 1.2 % of the administered amount

CCc1oc2ccccc2c1C(=O)c1cc(Br)c(O)c(Br)c1 [Benzbromarone, reference compound]
Plasma uric acid level (Cebus monkey; oral 15 mg/kg): 3.80 mg/dL | Fractional excretion rate of uric acid (FEua) (Cebus monkey; [6]): 20.0±10.5% | area under the curve (AUC) [1, 5]: 15900 ± 3300 ng·h/mL | half-life of drug [1, 5]: 5.4 ± 1.9 h | time of maximum drug concentration in blood (Tmax) [1, 5]: 2.7 ± 1.0 h | excretion rate in urine [1]: not detected

O=C(CN1C(=O)COc2ccncc21)c1cc(Br)c(O)c(Br)c1 [Compound 56]
IC50 (CYP2C9 [2]): > 20 µM

O=C(c1cc(Br)c(O)c(Br)c1)N1CCOc2ccncc21 [Compound 4, (3,5-dibromo-4-hydroxy-phenyl)-(2,3-dihydro-pyrido[4,3-b][1,4]oxazin-4-yl)-methanone]
enhanced uricosuric effect compared with Benzbromarone (Cebus monkey; 15 mg/kg, during 0~8 hours): 160% | Plasma uric acid level (Cebus monkey; oral 3.75 mg/kg): 3.88 mg/dL | Fractional excretion rate of uric acid (FEua) (Cebus monkey; oral 3.75 mg/kg, during 0~8 hours): 24.1±13.3% | Plasma uric acid level (Cebus monkey; oral 7.5 mg/kg): 3.66 mg/dL | Fractional excretion rate of uric acid (FEua) (Cebus monkey; oral 7.5 mg/kg, during 0~8 hours): 31.6±13.3% | Plasma uric acid level (Cebus monkey; oral 15 mg/kg): 3.40 mg/dL | Fractional excretion rate of uric acid (FEua) (Cebus monkey; [6]): 33.2±19.8% | IC50 (CYP2C9 [3]): 24.3 µM | IC50 (hURAT1; read-out: IC50 (μM) hURAT, level of uric acid reuptake inhibition): 0.023 µM | Solubility (μg/mL) pH 1.2 ([4]; first solution pH about 1.2, 2 mg/mL): 1927 μg/mL | Solubility (μg/mL) pH 6.8 ([4]; second solution pH about 6.8, 2 mg/mL): 970 μg/mL

Br.O=C(c1cc(Br)c(O)c(Br)c1)N1CCOc2ccncc21 [Compound 3, (3,5-dibromo-4-hydroxy-phenyl)-(2,3-dihydro-pyrido[4,3-b][1,4]oxazin-4-yl)-methanone bromic acid salt]
enhanced uricosuric activity compared to the compound disclosed in WO2006/057460 (Cebus monkey; comparison test): 180% | IC50 (CYP2C9 [3]): 24.5 µM | IC50 (hURAT1; IC50 (μM) hURAT, level of uric acid reuptake inhibition): 0.0165 µM | solubility at 2 h ([4]; pH 1.2, simulated gastric fluid, first solution pH about 1.2, 2 mg/mL, read-out: Solubility (μg/mL) pH 1.2): 1420 µg/mL | solubility at 2 h ([4]; pH 6.8, aqueous buffer, second solution pH about 6.8, 2 mg/mL, read-out: Solubility (μg/mL) pH 6.8): 886 µg/mL
